Results reported in US10596169B2, “Cancer treatment with combination of plinabulin and taxane” (BeyondSpring Inc., priority 2013, dated 2020).

What was measured:
[1] = test system: MV522 human non-small cell lung tumor xenograph model; assay: Example 2: MV522 xenograft, NPI-2358 1, 4 or 24 h after docetaxel (TGI/TGD); type: in vivo, athymic nu/nu mice; conditions: for MDS day +/− SD: endpoint 1.0 cm^3
Method: In vivo evaluation of plinabulin in combination with docetaxel in the MV522 human non-small cell lung tumor xenograph model in athymic nu/nu mice: schedule of drug administration
The objective of the example was to evaluate the potential additive or synergistic effects of plinabulin (NPI-2358) in combination with docetaxel by administering NPI-2358 at various time points (1 h, 4 h, or 24 h) after docetaxel in the MV522 model. Significant endpoints for this experiment included mean tumor growth inhibition (TGI) or regression, tumor growth delay (TGD) in large tumor, weight loss, and mortality.
Female nude mice (Hsd: Athymic Nude-Foxn1^nu) between 5 and 6 weeks of age weighing approximately 20 grams were obtained from Harlan, Inc. (Madison, Wis.). Animals were injected subcutaneously (SC) with approximately 1×10^7 MV522 cells harvested from tissue culture (1:1 matrigel:media). When tumors grew to approximately 100 cubic millimeters (mm^3) in size, animals were pair-matched by tumor size into treatment and control groups. Animals were ear-tagged and followed individually throughout the experiment.
Initial doses were administered on Day 1 following pair-matching. The experiment was carried out as both a tumor growth inhibition (TGI) and tumor growth delay (TGD) study. For TGI, the endpoint was when the average tumor volume of Group 1 reached 1.2 cm^3. For TGD, the endpoint was reached when each individual animal's tumor volume reached 1.0 cm^3. A 10 mg/ml stock vial of docetaxel was diluted in 0.9% saline on each day of dosing and administered intravenously (IV).
Same as in Example 1. This arm of the study was ended on Day 80 or 53 at the sponsor's request. Long-term survivors (animals not reaching the tumor volume endpoint by the preset time period (LTS)) were assigned an IDS value of the last study day (Day 80) and included in these calculations.
For comparison of activity with standard agent(s), gross or net log10 cell-kill values were converted to an arbitrary activity rating below: […]

[2] = test system: stage IIIb/IV non-small cell lung cancer; assay: Example 3: clinical study, efficacy (overall survival, response rate), Arm DN vs Arm D; type: in vivo, human (NSCLC patients); conditions: for OS / Response Rate: Arm DN (30 mg/m^2) vs Arm D
Method: The investor applied the optimum plinabulin and docetaxel combination treatment schedule derived from MV522 animal studies in NSCLC patients. Patients received therapy on Day 1 and Day 8 in 3-week cycles. Therapy on Day 1 consisted of 75 mg/m^2 docetaxel administered via intravenous infusion (IV) over 1 hour, followed 2 hours later (from the time the docetaxel infusion begins) by 30 mg/m^2 plinabulin administered via intravenous infusion (IV) over 30 minutes. Therapy on Day 8 consisted of 20 mg/m^2 or 30 mg/m^2 plinabulin administered via intravenous infusion (IV) over 30 minutes.
To compare the overall survival of patients with NSCLC treated with docetaxel to patients treated with docetaxel+plinabulin.
Secondary: • 1. To compare the response rate, duration of response, 6-month survival, and progression free survival in patients with NSCLC treated with docetaxel to patients with docetaxel+plinabulin; • 2. To compare the safety and adverse events profile of docetaxel to docetaxel+plinabulin.
This was an open-label study in patients with advanced NSCLC that had progressed after treatment with at least 1 chemotherapy regimen. Patients were randomized to receive either docetaxel plus plinabulin (DN) or docetaxel alone (75 mg/m^2) (D). 2 dosing cohorts were investigated: • 1) 30 mg/m^2 dosing cohort: Approximately 110 patients were to be randomized (1:1) to receive either docetaxel plus plinabulin at 30 mg/m^2 (DN 30 mg/m^2 arm) or docetaxel alone (D arm); • 2) 20 mg/m^2 dosing cohort: Approximately 57 patients were to be randomized (2:1) to receive either docetaxel plus plinabulin at 20 mg/m^2 (DN 20 mg/m^2 arm) or docetaxel (D arm) alone.
Patients received therapy on Day 1 and Day 8 in 3-week cycles.
Therapy on Day 1 consisted of 75 mg/m^2 docetaxel administered via intravenous infusion (IV) over 1 hour, followed 2 hours later (from the time the docetaxel infusion began) by placebo (Arm D) or 30 mg/m^2 or 20 mg/m^2 plinabulin (Arm DN) DN administered via intravenous infusion (IV) over 30 minutes. Oral dexamethasone (16 mg) was given the day prior to, the day of and the day following docetaxel infusion (Day 1). Therapy on Day 8 consisted of placebo (Arm D) or 30 mg/m^2 or 20 mg/m^2 plinabulin (Arm DN) administered via intravenous infusion (IV) over 30 minutes.
Patients with stage IIIb/IV non-small cell lung cancer that has progressed after treatment with at least one chemotherapy regimen.
Assessment of response to treatment occurred during the rest period of the second cycle (and approximately every 2 cycles thereafter).
Comparisons were made of efficacy endpoints between Arm D and Arm DN. The primary efficacy endpoint is overall survival. Secondary endpoints include response rate, duration of response, quality of life, neutropenia rate and G-CSF usage.
The distributions of overall survival and any other time-to-event endpoints were summarized using the Kaplan-Meier method. The log-rank test was used to compare the efficacy endpoints between treatment groups. All statistical tests were carried out using one-sided tests at the 5% level of significance. The primary objective of this trial is to assess the effect of the addition of plinabulin on overall survival.

[3] = G2: docetaxel 15 mg/kg IV + NPI-2358 vehicle 1 h after
[4] = G3: docetaxel 15 mg/kg IV + NPI-2358 vehicle 4 h after
[5] = G4: docetaxel 15 mg/kg IV + NPI-2358 vehicle 24 h after
[6] = G11: docetaxel 25 mg/kg IV + NPI-2358 vehicle 1 h after
[7] = G12: docetaxel 25 mg/kg IV + NPI-2358 vehicle 4 h after
[8] = G13: docetaxel 25 mg/kg IV + NPI-2358 vehicle 24 h after

With `CC(=O)O[C@@]12CO[C@@H]1C[C@H](O)[C@@]1(C)C(=O)[C@H](O)C3=C(C)[C@@H](OC(=O)[C@H](O)[C@@H](NC(=O)OC(C)(C)C)c4ccccc4)C[C@@](O)([C@@H](OC(=O)c4ccccc4)[C@H]21)C3(C)C` [Docetaxel, docetaxel] the “% TGI” value [1, 3] was 79%, the “Final tumor volume (Day 24) mean +/− SEM” value [1, 3] was 337 +/− 29 and the Log10 cell kill [1, 3] was 0.6. The “T-C (tumor growth delay)” value [1, 3] was 14, the “MDS day +/− SD” value [1, 3] was 38 ± 3 days and the “% TGI” value [1, 4] was 81%. The “Final tumor volume (Day 24) mean +/− SEM” value [1, 4] was 313 +/− 23, the Log10 cell kill [1, 4] was 0.7 and the “T-C (tumor growth delay)” value [1, 4] was 18. For the same compound, the “MDS day +/− SD” value [1, 4] was 42 ± 6 days, the “% TGI” value [1, 5] was 80% and the “Final tumor volume (Day 24) mean +/− SEM” value [1, 5] was 325 +/− 41. For the same compound, the Log10 cell kill [1, 5] was 0.6, the “T-C (tumor growth delay)” value [1, 5] was 16 and the “MDS day +/− SD” value [1, 5] was 40 ± 7 days. For the same compound, the “# of animals with tumor regression (% TR (#))” value (“# of animals … (% TR (#))” below) [1, 6] was 7, the “% TGI” value [1, 6] was 104% and the “% TR” value [1, 6] was 42%. The “Final tumor volume (Day 24) mean +/− SEM” value [1, 6] was 69 +/− 10, the Log10 cell kill [1, 6] was 1.6 and the “T-C (tumor growth delay)” value [1, 6] was 39. The “MDS day +/− SD” value [1, 6] was 63 ± 10 days, the “# of animals … (% TR (#))” value [1, 7] was 7 and the “% TGI” value [1, 7] was 104%. The “% TR” value [1, 7] was 45%, the “Final tumor volume (Day 24) mean +/− SEM” value [1, 7] was 65 +/− 9 and the Log10 cell kill [1, 7] was 1.3. For the same compound, the “T-C (tumor growth delay)” value [1, 7] was 32, the “MDS day +/− SD” value [1, 7] was 56 ± 4 days and the “# of animals … (% TR (#))” value [1, 8] was 7. For the same compound, the “% TGI” value [1, 8] was 103%, the “% TR” value [1, 8] was 55% and the “Final tumor volume (Day 24) mean +/− SEM” value [1, 8] was 72 +/− 14. The Log10 cell kill [1, 8] was 1.4, the “T-C (tumor growth delay)” value [1, 8] was 35 and the “MDS day +/− SD” value [1, 8] was 59 ± 10 days. For the same compound, the “Overall survival (OS)” value ([2]; 30 mg/m^2 group, all patients, docetaxel 75 mg/m^2) was 7.5 M, the OS ([2]; All Patients) was 7.5 month and the “Response Rate” value ([2]; All Patients) was 14.5%. For the same compound, the OS ([2]; largest primary tumor >3 cm) was 7.5 month, the “Response Rate” value ([2]; largest primary tumor >3 cm) was 13.9% and the OS ([2]; largest primary tumor >5 cm) was 6.7 month. For the same compound, the “Response Rate” value ([2]; largest primary tumor >5 cm) was 15%, the OS ([2]; largest primary tumor >7 cm) was 5.03 month and the “Response Rate” value ([2]; largest primary tumor >7 cm) was 20%. For the same compound, the OS ([2]; largest primary tumor ≤3 cm) was 6.5 month, the “Response Rate” value ([2]; largest primary tumor ≤3 cm) was 15.8% and the “Overall survival (OS)” value ([2]; subgroup all tumor <3 cm, plinabulin 30 mg/m^2) was 6.47 M. The “Overall survival (OS)” value ([2]; subgroup at least one tumor with diameter greater than 3 cm, plinabulin 30 mg/m^2) was 7.8 M.
